Measurements as given in patent US10301280B2 (Plexxikon Inc., priority 2012, dated 2019).

The compounds below were run on BaF3-FL KIT D816V or BaF3-FL KIT V560G/D816V cell line (assay: Cell-based assays of c-Kit mutant kinase activity (cell growth, ATPlite)). Conditions: at least one of the c-kit cell assays of Example 26.
Experimental: The c-Kit mutant D816V inhibitors were assessed using an engineered BaF3-FL KIT D816V or BaF3-FL KIT V560G/D816V cell line. The BaF3-FL KIT D816V cell lines were created by introduction of KIT mutant (D816V) full length constructs that render the cells dependent on the introduced kinase for growth. Inhibitors of c-Kit mutant D816V kinase reduce or eliminate the mediated c-kit mutant D816V kinase activation, resulting in reduced cell proliferation of the BaF3-FL Kit mutant D816V cells. This inhibition is measured by the effect of compound concentration on cell growth to assess IC50 values. BaF3-FL KIT D816V cells were seeded at 1×10^4 cells per well of a 96 well cell culture plate in 50 μl of cell culture medium of RPMI Medium 1X (Invitrogen #11875-093) supplemented with 10% FBS (Invitrogen #10438), 1% Non Essential Amino Acids(Invitrogen #11140), 1% Penicillin Streptomycin (Invitrogen #15140), 1% L-Glutamine (Invitrogen #25030-081). Compounds were dissolved in DMSO at a concentration of 5 mM and were serially diluted 1:3 for a total of eight points and added to the cells to a final maximum concentration of 10 μM in 100 μl cell culture medium (final concentration 0.2% DMSO). Cells were also treated with Dasatinib as a positive control. The cells were incubated at 37° C., 5% CO2 for three days. ATPlite Buffer (Perkin Elmer #6016739) and substrate were equilibrated to room temperature, and enzyme/substrate Recombinant Firefly Luciferase/D-Luciferin was reconstituted. The cell plates were equilibrated to room temperature for 30 minutes, then lysed by addition of 25 uL per well of the ATPlite Reagent. The plate was mixed for 5 minutes on a plate shaker to lyse the cells. The plates were read on a Tecan Safire using Luminescence protocol modified to read 0.1 s per well. The luminescence reading assesses the ATP content, which correlates directly with cell number such that the reading as a function of compound concentration is used to determine the IC50 value.
Plasmids P75635 and P75565 were engineered for mammalian cell expression. In both plasmids, full-length human v-kit Hardy-Zuckerman 4 feline sarcoma viral oncogene homolog gene (NCBI accession NM_000222, KIT, residues M1-V976) was subcloned into the pCI-Neo vector (Promega E1841). Plasmid P75635 contains the mutation of residue Aspartic acid 816 to Valine. Plasmid P75565 contains the double mutation of residues Valine 560 to Glycine and Aspartic acid 816 to Valine. The pCI-neo Mammalian Expression Vector carries the human cytomegalovirus (CMV) immediate-early enhancer/promoter region to promote constitutive expression of KIT and contains the neomycin phosphotransferase gene, a selectable marker.
It is understood that the results of these assays may vary as assay conditions are varied. Inhibition levels determined under the conditions described herein represent a relative activity for the compounds tested under the specific conditions employed. The cell based assays are likely to show variability due to the complexity of the system and the sensitivity thereof to any changes in the assay conditions. […] In some instances, the compounds were not tested in all of the assays, or assay results were not valid.

IC50, < 10 µM:
Cc1n[nH]c(CNc2cnc3[nH]c(-c4ccc(F)cc4)cc3c2)c1Cl [P-2141, N-[(4-chloro-5-methyl-1H-pyrazol-3-yl)methyl]-2-(4-fluorophenyl)-1H-pyrrolo[2,3-b]pyridin-5-amine]
Cc1cc(CNc2cnc3[nH]c(-c4ccc(F)cc4)cc3c2)[nH]n1 [P-2142, 2-(4-fluorophenyl)-N-[(5-methyl-1H-pyrazol-3-yl)methyl]-1H-pyrrolo[2,3-b]pyridin-5-amine]
Cc1n[nH]c(C(=O)Nc2cnc3[nH]c(-c4cccc(Cl)c4C)cc3c2)c1C [P-2147, N-[2-(3-chloro-2-methyl-phenyl)-1H-pyrrolo[2,3-b]pyridin-5-yl]-3,4-dimethyl-1H-pyrazole-5-carboxamide]
O=C(Nc1cnc2[nH]c(-c3ccc(F)cc3)cc2c1)c1cc(C(F)(F)F)n[nH]1 [P-2156, N-[2-(4-fluorophenyl)-1H-pyrrolo[2,3-b]pyridin-5-yl]-3-(trifluoromethyl)-1H-pyrazole-5-carboxamide]
COc1nc(C)ccc1-c1cc2cc(NC(=O)c3[nH]nc(C)c3C)cnc2[nH]1 [P-2170, N-[2-(2-methoxy-6-methyl-3-pyridyl)-1H-pyrrolo[2,3-b]pyridin-5-yl]-3,4-dimethyl-1H-pyrazole-5-carboxamide]
COc1nccc(-c2cc3cc(NC(=O)c4[nH]nc(C)c4C)cnc3[nH]2)c1Cl [P-2171, N-[2-(3-chloro-2-methoxy-4-pyridyl)-1H-pyrrolo[2,3-b]pyridin-5-yl]-3,4-dimethyl-1H-pyrazole-5-carboxamide]
CCc1n[nH]c(C(=O)Nc2cnc3[nH]c(-c4ccc(F)cc4)cc3c2)c1Cl [P-2173, 4-chloro-3-ethyl-N-[2-(4-fluorophenyl)-1H-pyrrolo[2,3-b]pyridin-55-yl]-1H-pyrazole-5-carboxamide]
Cc1[nH]nc(C(=O)Nc2cnc3[nH]cc(-c4cccc(N5CCNCC5)n4)c3c2)c1C [P-2190, 4,5-dimethyl-N-(3-(6-(piperazin-1-yl)pyridin-2-yl)-1H-pyrrolo[2,3-b]pyridin-5-yl)-1H-pyrazole-3-carboxamide]
Cc1[nH]nc(C(=O)Nc2cnc3[nH]cc(-c4cccc(N5CCOCC5)n4)c3c2)c1C [P-2192, 4,5-dimethyl-N-(3-(6-morpholinopyridin-2-yl)-1H-pyrrolo[2,3-b]pyridin-5-yl)-1H-pyrazole-3-carboxamide]
Cc1[nH]nc(C(=O)Nc2cnc3[nH]cc(-c4ccnc(N5CCOCC5)c4)c3c2)c1C [P-2193, 4,5-dimethyl-N-(3-(2-morpholinopyridin-4-yl)-1H-pyrrolo[2,3-b]pyridin-5-yl)-1H-pyrazole-3-carboxamide]
CC(=O)N1CC(n2cc(-c3cc4cc(NC(=O)c5n[nH]c(C)c5C)cnc4[nH]3)c(C)n2)C1 [P-2194, N-(2-(1-(1-acetylazetidin-3-yl)-3-methyl-1H-pyrazol-4-yl)-1H-pyrrolo[2,3-b]pyridin-5-yl)-4,5-dimethyl-1H-pyrazole-3-carboxamide]
Cc1nn(C2CNC2)cc1-c1cc2cc(NC(=O)c3n[nH]c(C)c3C)cnc2[nH]1 [P-2195, N-(2-(1-(azetidin-3-yl)-3-methyl-1H-pyrazol-4-yl)-1H-pyrrolo[2,3-b]pyridin-5-yl)-4,5-dimethyl-1H-pyrazole-3-carboxamide]
Cc1[nH]nc(C(=O)Nc2cnc3[nH]c(-c4cnn(C5COC5)c4C)cc3c2)c1C [P-2196, 4,5-dimethyl-N-(2-(5-methyl-1-(oxetan-3-yl)-1H-pyrazol-4-yl)-1H-pyrrolo[2,3-b]pyridin-5-yl)-1H-pyrazole-3-carboxamide]
Cc1[nH]nc(C(=O)Nc2cnc3[nH]c(-c4cnn(C5CNC5)c4C)cc3c2)c1C [P-2197, N-(2-(1-(azetidin-3-yl)-5-methyl-1H-pyrazol-4-yl)-1H-pyrrolo[2,3-b]pyridin-5-yl)-4,5-dimethyl-1H-pyrazole-3-carboxamide]
Cc1[nH]nc(C(=O)Nc2cnc3[nH]c(-c4cnn(C5CCNCC5)c4C)cc3c2)c1C [P-2198, 4,5-dimethyl-N-(2-(5-methyl-1-(piperidin-4-yl)-1H-pyrazol-4-yl)-1H-pyrrolo[2,3-b]pyridin-5-yl)-1H-pyrazole-3-carboxamide]
CC(=O)N1CCC(n2ncc(-c3cc4cc(NC(=O)c5n[nH]c(C)c5C)cnc4[nH]3)c2C)CC1 [P-2199, N-(2-(1-(1-acetylpiperidin-4-yl)-5-methyl-1H-pyrazol-4-yl)-1H-pyrrolo[2,3-b]pyridin-5-yl)-4,5-dimethyl-1H-pyrazole-3-carboxamide]
Cc1[nH]nc(C(=O)Nc2cnc3[nH]c(-c4cnn(C5CCN(C(=O)C6CC6)CC5)c4C)cc3c2)c1C [P-2200, N-(2-(1-(1-(cyclopropanecarbonyl)piperidin-4-yl)-5-methyl-1H-pyrazol-4-yl)-1H-pyrrolo[2,3-b]pyridin-5-yl)-4,5-dimethyl-1H-pyrazole-3-carboxamide]
Cc1nn(C2CCNCC2)cc1-c1cc2cc(NC(=O)c3n[nH]c(C)c3C)cnc2[nH]1 [P-2201, 4,5-dimethyl-N-(2-(3-methyl-1-(piperidin-4-yl)-1H-pyrazol-4-yl)-1H-pyrrolo[2,3-b]pyridin-5-yl)-1H-pyrazole-3-carboxamide]
CC(=O)N1CCC(n2cc(-c3cc4cc(NC(=O)c5n[nH]c(C)c5C)cnc4[nH]3)c(C)n2)CC1 [P-2202, N-(2-(1-(1-acetylpiperidin-4-yl)-3-methyl-1H-pyrazol-4-yl)-1H-pyrrolo[2,3-b]pyridin-5-yl)-4,5-dimethyl-1H-pyrazole-3-carboxamide]
Cc1nn(C2CCN(C(=O)C3CC3)CC2)cc1-c1cc2cc(NC(=O)c3n[nH]c(C)c3C)cnc2[nH]1 [P-2203, N-(2-(1-(1-(cyclopropanecarbonyl)piperidin-4-yl)-3-methyl-1H-pyrazol-4-yl)-1H-pyrrolo[2,3-b]pyridin-5-yl)-4,5-dimethyl-1H-pyrazole-3-carboxamide]
Cc1[nH]nc(C(=O)Nc2cnc3[nH]c(-c4ccnc(NC5CC5)c4)cc3c2)c1C [P-2204, N-(2-(2-(cyclopropylamino)pyridin-4-yl)-1H-pyrrolo[2,3-b]pyridin-5-yl)-4,5-dimethyl-1H-pyrazole-3-carboxamide]
Cc1[nH]nc(C(=O)Nc2cnc3[nH]c(-c4ccnc(NC(=O)C5CC5)c4Cl)cc3c2)c1C [P-2205, N-(2-(3-chloro-2-(cyclopropanecarboxamido)pyridin-4-yl)-1H-pyrrolo[2,3-b]pyridin-5-yl)-4,5-dimethyl-1H-pyrazole-3-carboxamide]
Cc1[nH]nc(C(=O)Nc2cnc3[nH]c(-c4ccnc(NC(=O)C5CC5)c4)cc3c2)c1C [P-2206, N-(2-(2-(cyclopropanecarboxamido)pyridin-4-yl)-1H-pyrrolo[2,3-b]pyridin-5-yl)-4,5-dimethyl-1H-pyrazole-3-carboxamide]
Cc1[nH]nc(C(=O)Nc2cnc3[nH]c(-c4ccnc(C5CCN(C(=O)C6CC6)CC5)c4)cc3c2)c1C [P-2207, N-(2-(2-(1-(cyclopropanecarbonyl)piperidin-4-yl)pyridin-4-yl)-1H-pyrrolo[2,3-b]pyridin-5-yl)-4,5-dimethyl-1H-pyrazole-3-carboxamide]
Cc1[nH]nc(C(=O)Nc2cnc3[nH]c(-c4ccnc(N5CCCC5)c4)cc3c2)c1C [P-2208, 4,5-dimethyl-N-(2-(2-(pyrrolidin-1-yl)pyridin-4-yl)-1H-pyrrolo[2,3-b]pyridin-5-yl)-1H-pyrazole-3-carboxamide]
Cc1[nH]nc(C(=O)Nc2cnc3[nH]c(-c4ccnc(N5CCCCC5)c4)cc3c2)c1C [P-2209, 4,5-dimethyl-N-(2-(2-(piperidin-1-yl)pyridin-4-yl)-1H-pyrrolo[2,3-b]pyridin-5-yl)-1H-pyrazole-3-carboxamide]
Cc1[nH]nc(C(=O)Nc2cnc3[nH]c(-c4ccnc(N5CCC(C)CC5)c4)cc3c2)c1C [P-2210, 4,5-dimethyl-N-(2-(2-(4-methylpiperidin-1-yl)pyridin-4-yl)-1H-pyrrolo[2,3-b]pyridin-5-yl)-1H-pyrazole-3-carboxamide]
